Target: dihydropteroate synthase (DHPS, FolP1) (Mycobacterium tuberculosis, UniProt P9WND1)
Format: biochemical

dihydropteroate synthase (DHPS, FolP1), sequence (P9WND1 whole entry): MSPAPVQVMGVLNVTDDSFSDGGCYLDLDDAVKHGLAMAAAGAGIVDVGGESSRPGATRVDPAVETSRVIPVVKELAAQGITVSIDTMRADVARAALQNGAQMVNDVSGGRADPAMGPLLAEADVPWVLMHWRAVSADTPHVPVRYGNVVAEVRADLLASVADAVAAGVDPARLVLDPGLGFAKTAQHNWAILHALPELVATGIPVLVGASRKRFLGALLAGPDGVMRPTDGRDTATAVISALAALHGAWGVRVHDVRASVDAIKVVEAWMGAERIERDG

With `Nc1ccc(C(=O)O)c(O)c1` [PAS, para-aminosalicylic acid] the “in vitro turnover assay with purified recombinant enzyme” value was “purified recombinant enzymes confirmed that PAS was a kinetically and chemically competent substrate for M. tuberculosis FolP1”.

From article PMC3792487 (Science (New York, N.Y.), 2012)
